Source: patent US11547663B2, “Unit aerosol doses for anticoagulation” (InCarda Therapeutics, Inc., priority 2015, dated 2023)

Experiments:
[1] = cited from earlier work
[2] = system: intrinsic pathway; assay: Activated clotting time (ACT) in dog blood after IV or IT anticoagulant; format: in vivo; conditions: for ACT LA: Left Atrium
Method: To assess the efficacy of anticoagulants delivered via intratracheal (IT) inhalation, four different anticoagulants were tested in a dog study. PK as well as biomarkers of blood in the Left Atrium (LA) and Coronary Sinus (CS) were monitored. These locations were chosen as these are the sites whereby clot formation occurs that leads to Myocardial Infarction or results in stroke. These drugs and doses were selected to represent a wide spectrum of anticoagulant classes. One anticoagulant was tested in one dog on each arm of this study. Activated clotting time (ACT), measures the time in seconds needed for whole blood to clot upon exposure to an activator of an intrinsic pathway by the addition of such as factor XII activators. Measurements were performed in the blood collected from Left Atrium (LA) and in the Coronary sinus (CS)—the targets for stroke prevention and Myocardial Infarction (MI), respectively.

[3] = system: extrinsic system; assay: Prothrombin Time (PT) in dog blood after IV or IT anticoagulant; format: in vivo; conditions: for PT CS / PTCS: Coronary Sinus; for PT LA: Left Atrium
Method: (§1) To assess the efficacy of anticoagulants delivered via intratracheal (IT) inhalation, four different anticoagulants were tested in a dog study.
(§2) PK as well as biomarkers of blood in the Left Atrium (LA) and Coronary Sinus (CS) were monitored. These locations were chosen as these are the sites whereby clot formation occurs that leads to Myocardial Infarction or results in stroke.
(§3) These drugs and doses were selected to represent a wide spectrum of anticoagulant classes. One anticoagulant was tested in one dog on each arm of this study.
(§4) Factor Xa inhibition; Prothrombin Time (PT): measures the integrity of the extrinsic system as well as factors common to both systems; and Activated Partial Thromboplastin Time (aPTT or PTT): measures the integrity of the intrinsic system and the common components and factor-Xa inhibition.
(§5) Measurements were performed in the blood collected from Left Atrium (LA) and in the Coronary sinus (CS)—the targets for stroke prevention and Myocardial Infarction (MI), respectively.

[4] = system: intrinsic system; assay: Activated Partial Thromboplastin Time (aPTT or PTT) in dog blood after IV or IT anticoagulant; format: in vivo; conditions: for PTT CS: Coronary Sinus; for PTT LA: Left Atrium
Method: as §1, §2, §3, §4, §5

[5] = Inhaled anticoagulant in Myocardial Infarction patient (Example 4); format: in vivo, human
From the text: Inhaled anticoagulant (e.g. Argatroban) will be administered (e.g., self-administered) to a patient suffering a Myocardial Infarction (MI) early to ensure that the patient is in an anti-coagulated state by the time the patient arrives at the hospital or point of care. This will facilitate further interventions, for which an anti-coagulated state is important.

[6] = Inhaled anticoagulant in patient undergoing heart valve replacement (Example 6); format: in vivo, human
Method: Inhaled anticoagulant (e.g. Argatroban) will be administered to a patient undergoing heart valve replacement to target the heart to reach an anti-coagulated state. In this example, a dose of 0.1 to 150 mg/kg can be sufficient to achieve an anti-coagulated state in 30 minutes.

[7] = Inhaled anticoagulant in heart transplant patient (Example 8); format: in vivo, human; conditions: patient undergoing heart transplant
Method: Inhaled anticoagulant (e.g. Argatroban) will be administered to a patient undergoing heart transplant to target the heart to reach an anti-coagulated state. In this example, a dose of 0.1 to 150 mg/kg can be sufficient to achieve an anti-coagulated state in 30 minutes.

[8] = in vivo; cited from earlier work
[9] = IV Argatroban 3 mg, 0 min (baseline)
[10] = T Argatroban 5 mg, 0 min (baseline)

## CCCCS(=O)(=O)N[C@@H](Cc1ccc(OCCCCC2CCNCC2)cc1)C(=O)O [Tirofiban]
[1]
  Log P: 1.4
  aqueous solubility: low

## CC1CNc2c(cccc2S(=O)(=O)N[C@@H](CCCNC(=N)N)C(=O)N2CC[C@@H](C)C[C@@H]2C(=O)O)C1 (some centres unmarked) [Argatroban]
[2]
  time in which ACT returns to base line: 2 h
[2]; IT
  increase of ACT above baseline: ≤ 3.2 fold
  time in which IT prolonged the ACT: 15 to 30 min
[2]; IT (inhaled)
  effect on ACT: increased and prolonged ACT
[2]; IV
  effect on ACT: prolonged
[2]; [9]
  ACT LA: 101 s
[2]; IV Argatroban 3 mg, 1 min
  ACT LA: 535 s
[2]; IV Argatroban 3 mg, 3 min
  ACT LA: 1000 s
[2]; IV Argatroban 3 mg, 5 min
  ACT LA: 489 s
[2]; IV Argatroban 3 mg, 10 min
  ACT LA: 326 s
[2]; IV Argatroban 3 mg, 15 min
  ACT LA: 264 s
[2]; IV Argatroban 3 mg, 30 min
  ACT LA: 185 s
[2]; IV Argatroban 3 mg, 60 min
  ACT LA: 140 s
[2]; IV Argatroban 3 mg, 120 min
  ACT LA: 107 s
[2]; [10]
  ACT LA: 84 s
[2]; T Argatroban 5 mg, 1 min
  ACT LA: 89 s
[2]; T Argatroban 5 mg, 3 min
  ACT LA: 73 s
[2]; T Argatroban 5 mg, 5 min
  ACT LA: 106 s
[2]; T Argatroban 5 mg, 10 min
  ACT LA: 135 s
[2]; T Argatroban 5 mg, 15 min
  ACT LA: 180 s
[2]; T Argatroban 5 mg, 30 min
  ACT LA: 259 s
[2]; T Argatroban 5 mg, 60 min
  ACT LA: 180 s
[2]; T Argatroban 5 mg, 120 min
  ACT LA: 129 s
[3]; IT (inhaled)
  effect on PT: very marginal spikes
[3]; IV
  effect on PT: prolonged
[3]; [9]
  PT CS: 6.5 s
  PT LA: 9.1 s
[3]; IV Argatroban 3 mg, 3 min
  PT CS: 33.7 s
  PT LA: 36.3 s
[3]; IV Argatroban 3 mg, 15 min
  PT CS: 20.2 s
  PT LA: 18 s
[3]; IV Argatroban 3 mg, 60 min
  PT CS: 8.6 s
  PT LA: 7.9 s
[3]; IV Argatroban 3 mg, 1 min
  PT LA: 44.3 s
[3]; IV Argatroban 3 mg, 5 min
  PT LA: 30.1 s
[3]; IV Argatroban 3 mg, 10 min
  PT LA: 22 s
[3]; IV Argatroban 3 mg, 30 min
  PT LA: 11.5 s
[3]; IV Argatroban 3 mg, 120 min
  PT LA: 6.7 s
[3]; [10]
  PTCS: 6.5 s
  PT LA: 6.3 s
[3]; T Argatroban 5 mg, 3 min
  PTCS: 6.8 s
  PT LA: 7 s
[3]; T Argatroban 5 mg, 15 min
  PTCS: 8.9 s
  PT LA: 10.4 s
[3]; T Argatroban 5 mg, 60 min
  PTCS: 8.6 s
  PT LA: 8.1 s
[3]; T Argatroban 5 mg, 1 min
  PT LA: 6.7 s
[3]; T Argatroban 5 mg, 5 min
  PT LA: 7.2 s
[3]; T Argatroban 5 mg, 10 min
  PT LA: 8.6 s
[3]; T Argatroban 5 mg, 30 min
  PT LA: 12 s
[3]; T Argatroban 5 mg, 120 min
  PT LA: 7.3 s
[4]; IT (inhaled)
  effect on aPTT: very marginal spikes
[4]; IV
  effect on aPTT: prolonged
[4]; [9]
  PTT CS: 20.9 s
  PTT LA: 48.2 s
[4]; IV Argatroban 3 mg, 3 min
  PTT CS: 20 s
  PTT LA: 29.5 s
[4]; IV Argatroban 3 mg, 15 min
  PTT CS: 33.8 s
  PTT LA: 25.1 s
[4]; IV Argatroban 3 mg, 60 min
  PTT CS: 24.9 s
  PTT LA: 9.8 s
[4]; IV Argatroban 3 mg, 1 min
  PTT LA: 41.5 s
[4]; IV Argatroban 3 mg, 5 min
  PTT LA: 23.4 s
[4]; IV Argatroban 3 mg, 10 min
  PTT LA: 20.9 s
[4]; IV Argatroban 3 mg, 30 min
  PTT LA: 12.2 s
[4]; IV Argatroban 3 mg, 120 min
  PTT LA: 49.3 s
[4]; [10]
  PTT CS: 16.1 s
  PTT LA: 13.3 s
[4]; T Argatroban 5 mg, 3 min
  PTT CS: 18.4 s
  PTT LA: 17.7 s
[4]; T Argatroban 5 mg, 15 min
  PTT CS: 9.5 s
  PTT LA: 17.8 s
[4]; T Argatroban 5 mg, 60 min
  PTT CS: 40.3 s
  PTT LA: 11.1 s
[4]; T Argatroban 5 mg, 1 min
  PTT LA: 12.5 s
[4]; T Argatroban 5 mg, 5 min
  PTT LA: 17.2 s
[4]; T Argatroban 5 mg, 10 min
  PTT LA: 20.1 s
[4]; T Argatroban 5 mg, 30 min
  PTT LA: 13.2 s
[4]; T Argatroban 5 mg, 120 min
  PTT LA: 10.4 s
[5]; patient suffering Myocardial Infarction, inhaled 0.1 to 150 mg/kg
  time to achieve an anti-coagulated state: 30 min
[5]; patient suspected of Myocardial Infarction, inhaled
  return to a normal coagulation state after initiating the administration: 3 h
[6]; inhaled
  return to a normal coagulation state after initiating the administration: 3 h
[6]; inhaled 0.1 to 150 mg/kg
  time to achieve an anti-coagulated state: 30 min
[7]; inhaled
  return to a normal coagulation state after initiating the administration: 3 h
[7]; inhaled 0.1 to 150 mg/kg
  time to achieve an anti-coagulated state: 30 min

## CO[C@H]1O[C@H](COS(=O)(=O)O)[C@@H](O[C@@H]2O[C@@H](C(=O)O)[C@@H](O[C@H]3O[C@H](COS(=O)(=O)O)[C@@H](O[C@@H]4O[C@H](C(=O)O)[C@@H](O[C@H]5O[C@H](COS(=O)(=O)O)[C@@H](OC)[C@H](OC)[C@H]5OC)[C@H](OC)[C@H]4OC)[C@H](OS(=O)(=O)O)[C@H]3OS(=O)(=O)O)[C@H](OC)[C@H]2OC)[C@H](OS(=O)(=O)O)[C@H]1OS(=O)(=O)O [idraparinux]
[8]
  elimination half-life: approximately 80 hours
  elimination half-life relative to fondaparinux: five to six times longer
